Assay results taken from the NIST ThermoML archive (doi:10.1016/j.jct.2015.03.017).

Test: mn = molality of the nth substance listed, in mol/kg
Conditions: 74.66 kPa, Liquid; for speed of sound: Frequency=3 MHz, Sing-around technique in a fixed-path interferometer; for mass density: Vibrating tube method

CC(C)C[N+](CC(C)C)(CC(C)C)CC(C)C.[Br-] [tetra-iso-butyl ammonium bromide] + O
Conditions	mass density, 278.15 K [kg/m3]	mass density, 283.15 K [kg/m3]	mass density, 288.15 K [kg/m3]	mass density, 293.15 K [kg/m3]	speed of sound, 278.15 K [m/s]	speed of sound, 283.15 K [m/s]	speed of sound, 288.15 K [m/s]	speed of sound, 293.15 K [m/s]	speed of sound, 298.15 K [m/s]
m1 = 0.01022	1000.51	1000.24	999.634	998.735	–	–	–	–	–
m1 = 0.02021	1001.05	1000.77	1000.16	999.258	1434	1454.4	1472.5	1488.5	1502.6
m1 = 0.02983	1001.57	1001.29	1000.67	999.758	1437	1457	1475	1490.5	1503.3
m1 = 0.03847	1002.04	1001.75	1001.12	1000.21	1438.5	1458.5	1476.2	1491.8	1505.5
m1 = 0.04829	1002.57	1002.27	1001.63	1000.71	1441.3	1461.2	1478.9	1494.5	1508.1
m1 = 0.05621	1002.99	1002.68	1002.04	1001.11	1443.4	1463.6	1480.5	1495.7	1509.7
m1 = 0.06888	1003.67	1003.34	1002.7	1001.76	1447	1466.5	1483.8	1498.9	1512.2
m1 = 0.07666	1004.08	1003.76	1003.1	1002.16	1448.2	1467.5	1484.6	1499.7	1512.9
m1 = 0.08623	1004.6	1004.26	1003.6	1002.64	1451.5	1469.4	1486.2	1500.9	1513.8
m1 = 0.1002	1005.35	1005	1004.33	1003.37	1453.7	1472.5	1489.2	1503.9	1516.7

CCCC[N+](CCCC)(C(C)CC)C(C)CC.[Br-] (stereo not given) [N-butyl-N,N-bis(1-methylpropyl)-1-butanaminium bromide] + O
Conditions	mass density, 278.15 K [kg/m3]	mass density, 283.15 K [kg/m3]	mass density, 288.15 K [kg/m3]	mass density, 293.15 K [kg/m3]	speed of sound, 278.15 K [m/s]	speed of sound, 283.15 K [m/s]	speed of sound, 288.15 K [m/s]	speed of sound, 293.15 K [m/s]	speed of sound, 298.15 K [m/s]
m1 = 0.01181	1000.58	1000.3	999.698	998.799	1431.4	1452	1470.2	1486.2	1500.2
m1 = 0.02026	1001.03	1000.75	1000.13	999.231	1433.3	1453.8	1472	1488	1502.1
m1 = 0.03102	1001.6	1001.32	1000.7	999.791	1435.8	1456.1	1474.1	1489.9	1503.9
m1 = 0.04017	1002.1	1001.81	1001.19	1000.28	1438.2	1458.3	1476	1491.6	1505.3
m1 = 0.05043	1002.66	1002.36	1001.73	1000.81	1440	1459.8	1477.4	1492.9	1506.4
m1 = 0.0598	1003.17	1002.87	1002.24	1001.32	1442.6	1462.2	1479.5	1494.8	1508.4
m1 = 0.06968	1003.71	1003.41	1002.76	1001.84	1445	1464.4	1481.6	1496.6	1509.9
m1 = 0.08191	1004.37	1004.06	1003.42	1002.5	1447.4	1466.7	1483.7	1498.7	1511.8
m1 = 0.09038	1004.85	1004.53	1003.89	1002.96	1450.6	1469.6	1486.4	1501.1	1514
m1 = 0.1036	1005.56	1005.25	1004.59	1003.66	1453.5	1472.2	1488.9	1503.7	1516.5

CCCC[N+](CCCC)(CC(C)C)CC(C)C.[Br-] [N-butyl-N,N-bis(2-methylpropyl)-1-butanaminium bromide] + O
Conditions	mass density, 278.15 K [kg/m3]	mass density, 283.15 K [kg/m3]	mass density, 288.15 K [kg/m3]	mass density, 293.15 K [kg/m3]	speed of sound, 278.15 K [m/s]	speed of sound, 283.15 K [m/s]	speed of sound, 288.15 K [m/s]	speed of sound, 293.15 K [m/s]	speed of sound, 298.15 K [m/s]
m1 = 0.01065	1000.5	1000.23	999.628	998.731	1431.7	1452	1469.2	1485.3	1499.3
m1 = 0.01998	1000.98	1000.71	1000.11	999.207	1433.3	1453.7	1471.8	1487.8	1501.8
m1 = 0.0287	1001.44	1001.16	1000.55	999.654	1435.3	1455.5	1473.4	1489.1	1502.9
m1 = 0.03816	1001.92	1001.65	1001.04	1000.13	–	–	–	–	–
m1 = 0.04991	1002.55	1002.27	1001.65	1000.74	1440.2	1460	1477.6	1493	1506.5
m1 = 0.05935	1003.05	1002.75	1002.13	1001.22	1443	1462.6	1479.9	1495.1	1508.5
m1 = 0.06884	1003.54	1003.25	1002.62	1001.71	1446.3	1465.8	1483.1	1498.3	1511.6
m1 = 0.08078	1004.18	1003.88	1003.25	1002.33	1449	1468.1	1485.2	1500.2	1513.4
m1 = 0.0922	1004.77	1004.47	1003.83	1002.91	1451.4	1470.1	1486.8	1501.5	1514.3
m1 = 0.1044	1005.43	1005.11	1004.46	1003.53	1453.6	1472.4	1488.9	1503.4	1516

CCCC[N+](CCCC)(CCCC)CCCC.[Br-] [tetrabutylammonium bromide] + O
Conditions	mass density, 278.15 K [kg/m3]	mass density, 283.15 K [kg/m3]	mass density, 288.15 K [kg/m3]	mass density, 293.15 K [kg/m3]	speed of sound, 278.15 K [m/s]	speed of sound, 283.15 K [m/s]	speed of sound, 288.15 K [m/s]	speed of sound, 293.15 K [m/s]	speed of sound, 298.15 K [m/s]
m1 = 0.01142	1000.27	999.991	999.38	998.474	1432	1452.5	1470.9	1487.1	1501.3
m1 = 0.02179	1000.55	1000.26	999.637	998.721	–	–	–	–	–
m1 = 0.02564	1000.66	1000.36	999.733	998.812	1436.7	1457.5	1475.5	1491.3	1504.8
m1 = 0.03767	1000.97	1000.66	1000.02	999.087	1439.6	1459.7	1477.4	1492.9	1506.4
m1 = 0.0459	1001.19	1000.87	1000.23	999.287	1442.7	1462.5	1480.1	1495.5	1508.9
m1 = 0.05856	1001.55	1001.21	1000.54	999.585	1446.1	1465.7	1482.9	1498.1	1511.7
m1 = 0.0711	1001.86	1001.51	1000.83	999.857	1450	1469.4	1486.4	1501.3	1514.3
m1 = 0.07968	1002.09	1001.73	1001.04	1000.05	1453	1472.2	1489.1	1504	1516.9
m1 = 0.09066	1002.42	1002.04	1001.33	1000.34	1455.7	1474.4	1491	1505.4	1517.9
m1 = 0.1003	1002.67	1002.28	1001.54	1000.54	1458	1476.6	1493	1507.3	1519.7
